Legend:
AMPKα1β1γ1 = molecular target: T1, AMPKα1β1γ1 (Homo sapiens, UniProt Q13131+Q9Y478); experiment: AMPKα1β1γ1 biochemical assay (LabChip EZ Reader mobility shift); details: EC50 of Table 1; activation, normalized to DMSO vehicle control; read-out: Human AMPK AMPKα1β1γ1 EC50
T1 construct: purchased Carna Biosciences 02-113
Method: (§1) Compounds disclosed herein were evaluated for their ability to activate AMPKα1β1γ1 by measuring phosphorylation of a commercially available fluorescent AMPK substrate using the LabChip® EZ Reader microfluidic system that is based on a mobility shift principle in which unphosphorylated fluorescent substrates may be separated and distinguished from phosphorylated fluorescent substrates due to the difference in negative charge. Briefly, compounds were serial diluted 3-fold in 100% DMSO for an 11-point dose-response curve. A 20 nL aliquot of diluted compound was transferred into a 384-well plate using a liquid handler (Labcyte Inc., Echo 550). A pre-prepared solution (10 mM MgCl2, 0.01% Brij-35, 2 mM DTT, 0.05% BSA, 1 mM EGTA, and 50 mM HEPES pH 7.5) was combined with 0.83 nM AMPKα1β1γ1 (Carna Biosciences, 02-113). The enzyme solution (15 μL) was aliquoted into each well and the plate was incubated at 24° C. for 30 min. A second stock solution (10 mM MgCl2, 0.01% Brij-35, 2 mM DTT, 0.05% BSA, 1 mM EGTA, 800 μM ATP, and 50 mM HEPES pH 7.5) was combined with 6 μM fluorescent peptide substrate for AMPKal (Perkin Elmer, 760351). The kinase reaction was initiated by adding 5 μL of the second solution containing substrate and ATP to each well. The plate was incubated at 24° C. for 90 minutes and 75 μL of 0.5 M EDTA was added to terminate the reaction. The plates were analyzed using a LabChip® EZ Reader (Perkin Elmer, 122919) and the effective concentration to achieve 50% of the maximal activity (EC50) was calculated after normalizing to the DMSO vehicle control.

AMPKα1β2γ1 = molecular target: T2, AMPKα1β2γ1 (Homo sapiens, UniProt O43741+Q13131); experiment: AMPKα1β2γ1 biochemical assay (LabChip EZ Reader mobility shift); details: second EC50 column of Table 1 (head repeats α1β1γ1; text says α1β2γ1 isoform); read-out: Human AMPK AMPKα1β1γ1 EC50
T2 construct: purchased Carna Biosciences (printed only as 'Biosciences') 02-147
T2 sequence (Q13131 whole entry, canonical isoform): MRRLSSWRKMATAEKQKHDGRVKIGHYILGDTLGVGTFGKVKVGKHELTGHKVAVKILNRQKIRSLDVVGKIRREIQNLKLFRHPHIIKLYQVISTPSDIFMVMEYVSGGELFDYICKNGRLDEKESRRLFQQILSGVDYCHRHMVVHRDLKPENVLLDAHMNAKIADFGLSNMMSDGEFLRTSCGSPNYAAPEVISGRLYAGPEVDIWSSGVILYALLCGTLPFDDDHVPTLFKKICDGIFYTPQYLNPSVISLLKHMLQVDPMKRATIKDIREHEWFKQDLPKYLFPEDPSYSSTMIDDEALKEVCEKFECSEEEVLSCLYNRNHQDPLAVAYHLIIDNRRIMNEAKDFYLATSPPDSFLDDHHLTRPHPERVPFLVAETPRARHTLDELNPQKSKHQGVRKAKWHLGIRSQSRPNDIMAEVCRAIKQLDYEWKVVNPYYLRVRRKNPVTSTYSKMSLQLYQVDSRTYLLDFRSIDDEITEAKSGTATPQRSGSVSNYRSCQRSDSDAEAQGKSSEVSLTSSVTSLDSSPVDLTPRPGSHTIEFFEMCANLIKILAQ
T2 sequence (O43741 whole entry, canonical isoform): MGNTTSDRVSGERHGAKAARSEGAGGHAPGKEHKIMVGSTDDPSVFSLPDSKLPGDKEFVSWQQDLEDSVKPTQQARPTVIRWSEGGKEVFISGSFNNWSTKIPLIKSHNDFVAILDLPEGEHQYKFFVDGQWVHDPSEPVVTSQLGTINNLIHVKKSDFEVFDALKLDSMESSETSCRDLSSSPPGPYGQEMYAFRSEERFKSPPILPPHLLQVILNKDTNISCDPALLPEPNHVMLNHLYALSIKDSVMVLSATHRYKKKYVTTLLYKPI
T2 sequence (P54619 whole entry partner, canonical isoform): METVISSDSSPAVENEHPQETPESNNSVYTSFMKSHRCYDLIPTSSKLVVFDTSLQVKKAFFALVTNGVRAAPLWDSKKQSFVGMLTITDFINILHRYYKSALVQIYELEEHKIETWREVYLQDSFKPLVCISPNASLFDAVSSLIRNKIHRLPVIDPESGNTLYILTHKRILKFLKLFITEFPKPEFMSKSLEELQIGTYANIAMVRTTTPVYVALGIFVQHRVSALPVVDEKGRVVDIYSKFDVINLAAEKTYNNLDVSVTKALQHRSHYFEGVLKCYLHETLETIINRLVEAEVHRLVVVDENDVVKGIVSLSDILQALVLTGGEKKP
Method: as §1
The same procedure above was also used to measure activation of the AMPKα1β2γ1 isoform, replacing AMPKα1β1γ1 with AMPKα1β2γ1 Biosciences 02-147).

T1 sequence (Q13131 whole entry): as the sequence (Q13131 whole entry, canonical isoform) above
T1 sequence (Q9Y478 whole entry): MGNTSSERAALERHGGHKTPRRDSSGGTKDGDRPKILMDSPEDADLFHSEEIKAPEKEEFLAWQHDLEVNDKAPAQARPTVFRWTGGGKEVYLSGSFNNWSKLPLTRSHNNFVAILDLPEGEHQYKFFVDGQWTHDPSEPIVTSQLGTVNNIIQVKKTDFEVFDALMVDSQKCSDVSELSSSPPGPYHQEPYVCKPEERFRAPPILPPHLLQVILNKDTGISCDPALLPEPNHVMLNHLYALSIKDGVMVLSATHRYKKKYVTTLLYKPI
T1 sequence (P54619 whole entry partner): as the sequence (P54619 whole entry partner, canonical isoform) above

SMILES	EC50 (AMPKα1β1γ1)	EC50 (AMPKα1β2γ1)
COc1nc(N2CC3CC3(C#N)C2)ccc1-c1cc2c(C(=O)O)c[nH]c2cc1Cl (racemic) [Example 15, racemic-6-chloro-5-(6-(1-cyano-3-azabicyclo[3.1.0]hexan-3-yl)-2-methoxypyridin-3-yl)-1H-indole-3-carboxylic acid]	50 to 100 nM	> 10 µM
COc1nc(N2CC3(CCC3O)C2)ccc1-c1cc2c(C(=O)O)c[nH]c2cc1Cl (racemic) [Example 25, racemic-6-chloro-5-(6-(5-hydroxy-2-azaspiro[3.3]heptan-2-yl)-2-methoxypyridin-3-yl)-1H-indole-3-carboxylic acid]	50 to 100 nM	> 10 µM
COc1nc(N2CC3CC3(O)C2)ccc1-c1cc2c(C(=O)O)c[nH]c2cc1Cl (racemic) [Example 26, racemic-6-chloro-5-(6-(1-hydroxy-3-azabicyclo[3.1.0]hexan-3-yl)-2-methoxypyridin-3-yl)-1H-indole-3-carboxylic acid]	≤ 50 nM	> 10 µM
COc1nc(N2C[C@H]3CCO[C@H]3C2)ccc1-c1cc2c(C(=O)O)c[nH]c2cc1Cl (racemic) [Example 28, racemic-6-chloro-5-(6-((cis)-hexahydro-5H-furo[2,3-c]pyrrol-5-yl)-2-methoxypyridin-3-yl)-1H-indole-3-carboxylic acid]	≤ 50 nM	> 10 µM
COc1nc(N2CC3(COC3)C2)ccc1-c1cc2c(C(=O)O)c[nH]c2cc1Cl [Example 1, 6-chloro-5-(2-methoxy-6-(2-oxa-6-azaspiro[3.3]heptan-6-yl)pyridin-3-yl)-1H-indole-3-carboxylic Acid]	≤ 50 nM	> 10 µM
COc1nc(N2C[C@@H]3[C@@H](CO)[C@@H]3C2)ccc1-c1cc2c(C(=O)O)c[nH]c2cc1Cl [Example 3, 6-chloro-5-(6-((trans)-6-(hydroxymethyl)-3-azabicyclo [3.1.0]hexan-3-yl)-2-methoxypyridin-3-yl)-1H-indole-3-carboxylic acid]	≤ 50 nM	0.25 to 10 µM
COc1nc(N2CC3(CC(O)C3)C2)ccc1-c1cc2c(C(=O)O)c[nH]c2cc1Cl [Example 4, 6-chloro-5-(6-(6-hydroxy-2-azaspiro[3.3]heptan-2-yl)-2-methoxypyridin-3-yl)-1H-indole-3-carboxylic acid]	≤ 50 nM	> 10 µM
COc1nc(N2CCC3(COC3)C2)ccc1-c1cc2c(C(=O)O)c[nH]c2cc1Cl [Example 5, 6-chloro-5-(2-methoxy-6-(2-oxa-6-azaspiro[3.4]octan-6-yl)pyridin-3-yl)-1H-indole-3-carboxylic acid]	≤ 50 nM	> 10 µM
COc1nc(N2CC3(CN(C(=O)OC(C)(C)C)C3)C2)ccc1-c1cc2c(C(=O)O)c[nH]c2cc1Cl [Example 6, 5-(6-(6-(tert-butoxycarbonyl)-2,6-diazaspiro[3.3]heptan-2-yl)-2-methoxypyridin-3-yl)-6-chloro-1H-indole-3-carboxylic acid]	50 to 100 nM	> 10 µM
COc1nc(N2CC3(CCCO3)C2)ccc1-c1cc2c(C(=O)O)c[nH]c2cc1Cl [Example 8, 6-chloro-5-(2-methoxy-6-(5-oxa-2-azaspiro[3.4]octan-2-yl)pyridin-3-yl)-1H-indole-3-carboxylic acid]	≤ 50 nM	> 10 µM
COC[C@@H]1[C@H]2CN(c3ccc(-c4cc5c(C(=O)O)c[nH]c5cc4Cl)c(OC)n3)C[C@@H]12 [Example 9, 6-chloro-5-(2-methoxy-6-((trans)-6-(methoxymethyl)-3-azabicyclo[3.1.0]hexan-3-yl)pyridin-3-yl)-1H-indole-3-carboxylic acid]	≤ 50 nM	> 10 µM
COc1nc(N2CC3(CC(N)C3)C2)ccc1-c1cc2c(C(=O)O)c[nH]c2cc1Cl [Example 10, 5-(6-(6-amino-2-azaspiro[3.3]heptan-2-yl)-2-methoxypyridin-3-yl)-6-chloro-1H-indole-3-carboxylic Acid]	≤ 50 nM	> 10 µM
COc1nc(N2CC3(CC3)C2)ccc1-c1cc2c(C(=O)O)c[nH]c2cc1Cl [Example 12, 5-[6-(5-azaspiro[2.3]hexan-5-yl)-2-methoxy-3-pyridyl]-6-chloro-1H-indole-3-carboxylic acid]	≤ 50 nM	> 10 µM
COc1nc(N2CC3(CCC3)C2)ccc1-c1cc2c(C(=O)O)c[nH]c2cc1Cl [Example 13, 6-chloro-5-(2-methoxy-6-(2-azaspiro[3.3]heptan-2-yl)pyridin-3-yl)-1H-indole-3-carboxylic acid]	≤ 50 nM	> 10 µM
COc1nc(N2CC3(CCC(=O)N3)C2)ccc1-c1cc2c(C(=O)O)c[nH]c2cc1Cl [Example 17, 6-chloro-5-(2-methoxy-6-(6-oxo-2,5-diazaspiro[3.4]octan-2-yl)pyridin-3-yl)-1H-indole-3-carboxylic acid]	50 to 100 nM	> 10 µM
COc1nc(N2CC3(CCNC3=O)C2)ccc1-c1cc2c(C(=O)O)c[nH]c2cc1Cl [Example 18, 6-chloro-5-(2-methoxy-6-(5-oxo-2,6-diazaspiro[3.4]octan-2-yl)pyridin-3-yl)-1H-indole-3-carboxylic acid]	≤ 50 nM	> 10 µM
COc1nc(N2CC3(CNC(=O)C3)C2)ccc1-c1cc2c(C(=O)O)c[nH]c2cc1Cl [Example 19, 6-chloro-5-(2-methoxy-6-(7-oxo-2,6-diazaspiro[3.4]octan-2-yl)pyridin-3-yl)-1H-indole-3-carboxylic acid]	≤ 50 nM	> 10 µM
COc1nc(N2CC3(CCOC3)C2)ccc1-c1cc2c(C(=O)O)c[nH]c2cc1Cl [Example 21, 6-chloro-5-(2-methoxy-6-(6-oxa-2-azaspiro[3.4]octan-2-yl)pyridin-3-yl)-1H-indole-3-carboxylic acid]	≤ 50 nM	> 10 µM
COc1nc(N2CC3(CC(=O)N(C)C3)C2)ccc1-c1cc2c(C(=O)O)c[nH]c2cc1Cl [Example 22, 6-chloro-5-(2-methoxy-6-(6-methyl-7-oxo-2,6-diazaspiro[3.4]octan-2-yl)pyridin-3-yl)-1H-indole-3-carboxylic acid]	≤ 50 nM	> 10 µM
COc1nc(N2C[C@@H]3[C@H](C2)[C@H]3OC)ccc1-c1cc2c(C(=O)O)c[nH]c2cc1Cl [Example 23, 6-chloro-5-(2-methoxy-6-((trans)-6-methoxy-3-azabicyclo[3.1.0]hexan-3-yl)pyridin-3-yl)-1H-indole-3-carboxylic acid]	50 to 100 nM	> 10 µM
COc1nc(N2C[C@@H]3[C@@H](O)[C@@H]3C2)ccc1-c1cc2c(C(=O)O)c[nH]c2cc1Cl [Example 24, 6-chloro-5-(6-((trans)-6-hydroxy-3-azabicyclo[3.1.0]hexan-3-yl)-2-methoxypyridin-3-yl)-1H-indole-3-carboxylic acid]	≤ 50 nM	0.25 to 10 µM
COc1nc(N2C[C@H]3COC[C@H]3C2)ccc1-c1cc2c(C(=O)O)c[nH]c2cc1Cl [Example 27, 6-chloro-5-(2-methoxy-6-((cis)-tetrahydro-1H-furo[3,4-c]pyrrol-5(3H)-yl)pyridin-3-yl)-1H-indole-3-carboxylic Acid]	50 to 100 nM	> 10 µM
COc1nc(N2C[C@@H]3COC[C@H]3C2)ccc1-c1cc2c(C(=O)O)c[nH]c2cc1Cl [Example 33, 6-chloro-5-(2-methoxy-6-((3aR, 6aR)-tetrahydro-1H-furo[3,4-c]pyrrol-5(3H)-yl)pyridin-3-yl)-1H-indole-3-carboxylic acid]	≤ 50 nM	0.25 to 10 µM
COc1nc(N2C[C@H]3COC[C@@H]3C2)ccc1-c1cc2c(C(=O)O)c[nH]c2cc1Cl [Example 34, 6-chloro-5-(2-methoxy-6-((3aS,6aS)-tetrahydro-1H-furo[3,4-c]pyrrol-5(3H)-yl)pyridin-3-yl)-1H-indole-3-carboxylic acid]	≤ 50 nM	0.25 to 10 µM
COc1nc(N2CC3CC(C2)O3)ccc1-c1cc2c(C(=O)O)c[nH]c2cc1Cl [Example 39, 5-(6-(6-oxa-3-azabicyclo[3.1.1]heptan-3-yl)-2-methoxypyridin-3-yl)-6-chloro-1H-indole-3-carboxylic acid]	≤ 50 nM	
COc1nc(N2CC3(COC3)C2)ccc1-c1cc2c(C(=O)O)c[nH]c2cc1F [Example 40, 6-fluoro-5-(2-methoxy-6-[2-oxa-6-azaspiro[3.3]hentan-6-yl]pyridin-3-yl)-1H-indole-3-carboxylic Acid]	100 to 250 nM	

Source: patent publication US20220339144A1, “PYRIDINYL INDOLE COMPOUNDS AND METHODS OF USE THEREOF” (Chinook Therapeutics Canada, Inc., priority 2021, published 2022)
